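Here, GI50 denotes the concentration required for 50% inhibition of growth. The concentration for full growth arrest is given as TGI.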
How the values were obtained:
Experiment in all cases: inhibition of tumour cell growth, NCI panel, 384-well format
IGROV1 ovarian = tested on: IGROV1 ovarian
SK-MEL-5 melanoma = tested on: SK-MEL-5 melanoma
OVCAR-8 ovarian = tested on: OVCAR-8 ovarian
T-47D breast = tested on: T-47D breast
MDA-MB-435 melanoma = tested on: MDA-MB-435 melanoma
RXF 393 renal = tested on: RXF 393 renal
HCT-116 colon = tested on: HCT-116 colon
HL-60(TB) leukemia = tested on: HL-60(TB) leukemia
A498 renal = tested on: A498 renal
HOP-92 NSCLC = tested on: HOP-92 NSCLC
HT29 colon = tested on: HT29 colon
U251 glioblastoma = tested on: U251 glioblastoma
SNB-75 CNS = tested on: SNB-75 CNS
RPMI-8226 leukemia = tested on: RPMI-8226 leukemia
UO-31 renal = tested on: UO-31 renal
SF-539 CNS = tested on: SF-539 CNS
NCI-H226 lung = tested on: NCI-H226 lung
CCRF-CEM leukemia = tested on: CCRF-CEM leukemia
LOX IMVI melanoma = tested on: LOX IMVI melanoma
ACHN renal = tested on: ACHN renal
UACC-257 melanoma = tested on: UACC-257 melanoma
MCF7 breast = tested on: MCF7 breast
NCI-H460 NSCLC = tested on: NCI-H460 NSCLC
PC-3 prostate = tested on: PC-3 prostate
OVCAR-4 ovarian = tested on: OVCAR-4 ovarian
MDA-MB-468 breast = tested on: MDA-MB-468 breast
KM12 colon = tested on: KM12 colon
UACC-62 melanoma = tested on: UACC-62 melanoma
HOP-62 NSCLC = tested on: HOP-62 NSCLC
K-562 leukemia = tested on: K-562 leukemia
SNB-19 CNS = tested on: SNB-19 CNS
SF-268 CNS = tested on: SF-268 CNS
MOLT-4 leukemia = tested on: MOLT-4 leukemia
NCI-H522 lung = tested on: NCI-H522 lung
SN12C renal = tested on: SN12C renal
COLO 205 colon = tested on: COLO 205 colon
CAKI-1 renal = tested on: CAKI-1 renal
TK-10 renal = tested on: TK-10 renal
NCI-H23 lung = tested on: NCI-H23 lung
BT-549 breast = tested on: BT-549 breast
SK-OV-3 ovarian = tested on: SK-OV-3 ovarian
786-0 renal = tested on: 786-0 renal
SK-MEL-28 melanoma = tested on: SK-MEL-28 melanoma
HCT-15 colon = tested on: HCT-15 colon
DU-145 prostate = tested on: DU-145 prostate
M14 melanoma = tested on: M14 melanoma
NCI-H322M lung = tested on: NCI-H322M lung
OVCAR-3 ovarian = tested on: OVCAR-3 ovarian
HS 578T breast = tested on: HS 578T breast
MALME-3M melanoma = tested on: MALME-3M melanoma
A549 NSCLC = tested on: A549 NSCLC
NCI/ADR-RES ovarian = tested on: NCI/ADR-RES ovarian
EKVX NSCLC = tested on: EKVX NSCLC
MDA-MB-231 breast = tested on: MDA-MB-231 breast
HCC-2998 colon = tested on: HCC-2998 colon
SF-295 CNS = tested on: SF-295 CNS
SW-620 colon = tested on: SW-620 colon

Compound: Cc1cnc(NC(=O)Nc2cc(Br)c(C)cc2OC[C@@H]2CNCCO2)cn1
- GI50 (IGROV1 ovarian): 354 nM
- TGI (IGROV1 ovarian): 12200 nM
- GI50 (SK-MEL-5 melanoma): 329 nM
- TGI (SK-MEL-5 melanoma): 1350 nM
- GI50 (OVCAR-8 ovarian): 153 nM
- TGI (OVCAR-8 ovarian): 443 nM
- GI50 (T-47D breast): 1860 nM
- TGI (T-47D breast): 3630 nM
- GI50 (MDA-MB-435 melanoma): 194 nM
- TGI (MDA-MB-435 melanoma): 389 nM
- GI50 (RXF 393 renal): 36.3 nM
- TGI (RXF 393 renal): 165 nM
- GI50 (HCT-116 colon): 977 nM
- TGI (HCT-116 colon): 2300 nM
- GI50 (HL-60(TB) leukemia): 47.8 nM
- TGI (HL-60(TB) leukemia): 174 nM
- GI50 (A498 renal): 25.5 nM
- TGI (A498 renal): 81.8 nM
- GI50 (HOP-92 NSCLC): 106 nM
- TGI (HOP-92 NSCLC): 851 nM
- GI50 (HT29 colon): 326 nM
- TGI (HT29 colon): 1120 nM
- GI50 (U251 glioblastoma): 497 nM
- TGI (U251 glioblastoma): 1730 nM
- GI50 (SNB-75 CNS): 369 nM
- TGI (SNB-75 CNS): 2950 nM
- GI50 (RPMI-8226 leukemia): 146 nM
- TGI (RPMI-8226 leukemia): 317 nM
- GI50 (UO-31 renal): 264 nM
- TGI (UO-31 renal): 1850 nM
- GI50 (SF-539 CNS): 54.3 nM
- TGI (SF-539 CNS): 201 nM
- GI50 (NCI-H226 lung): 5040 nM
- TGI (NCI-H226 lung): 18100 nM
- GI50 (CCRF-CEM leukemia): 100 nM
- TGI (CCRF-CEM leukemia): 219 nM
- GI50 (LOX IMVI melanoma): 1140 nM
- TGI (LOX IMVI melanoma): 2390 nM
- GI50 (ACHN renal): 58.5 nM
- TGI (ACHN renal): 254 nM
- GI50 (UACC-257 melanoma): 1420 nM
- TGI (UACC-257 melanoma): 2730 nM
- GI50 (MCF7 breast): 56.3 nM
- TGI (MCF7 breast): 1680 nM
- GI50 (NCI-H460 NSCLC): 290 nM
- TGI (NCI-H460 NSCLC): 1430 nM
- GI50 (PC-3 prostate): 1240 nM
- TGI (PC-3 prostate): 14200 nM
- GI50 (OVCAR-4 ovarian): 163 nM
- TGI (OVCAR-4 ovarian): 1390 nM
- GI50 (MDA-MB-468 breast): 485 nM
- TGI (MDA-MB-468 breast): 2660 nM
- GI50 (KM12 colon): 72.3 nM
- TGI (KM12 colon): 510 nM
- GI50 (UACC-62 melanoma): 284 nM
- TGI (UACC-62 melanoma): 1640 nM
- GI50 (HOP-62 NSCLC): 143 nM
- TGI (HOP-62 NSCLC): 512 nM
- GI50 (K-562 leukemia): 157 nM
- TGI (K-562 leukemia): 323 nM
- GI50 (SNB-19 CNS): 482 nM
- TGI (SNB-19 CNS): 4850 nM
- GI50 (SF-268 CNS): 368 nM
- TGI (SF-268 CNS): 2940 nM
- GI50 (MOLT-4 leukemia): 131 nM
- TGI (MOLT-4 leukemia): 262 nM
- GI50 (NCI-H522 lung): 1940 nM
- TGI (NCI-H522 lung): 5840 nM
- GI50 (SN12C renal): 1800 nM
- TGI (SN12C renal): 6090 nM
- GI50 (COLO 205 colon): 1690 nM
- TGI (COLO 205 colon): 4720 nM
- GI50 (CAKI-1 renal): 469 nM
- TGI (CAKI-1 renal): 2860 nM
- GI50 (TK-10 renal): 106 nM
- TGI (TK-10 renal): 366 nM
- GI50 (NCI-H23 lung): 56 nM
- TGI (NCI-H23 lung): 244 nM
- GI50 (BT-549 breast): 84.9 nM
- TGI (BT-549 breast): 258 nM
- GI50 (SK-OV-3 ovarian): 157 nM
- TGI (SK-OV-3 ovarian): 412 nM
- GI50 ([…]-0 renal): 101 nM
- TGI (786-0 renal): 427 nM
- GI50 (SK-MEL-28 melanoma): 1050 nM
- TGI (SK-MEL-28 melanoma): 2230 nM
- GI50 (HCT-15 colon): 303 nM
- TGI (HCT-15 colon): 1130 nM
- GI50 (DU-145 prostate): 347 nM
- TGI (DU-145 prostate): 1490 nM
- GI50 (M14 melanoma): 27.1 nM
- TGI (M14 melanoma): 83.3 nM
- GI50 (NCI-H322M lung): 195 nM
- TGI (NCI-H322M lung): 1830 nM
- GI50 (OVCAR-3 ovarian): 188 nM
- TGI (OVCAR-3 ovarian): 781 nM
- GI50 (HS 578T breast): 52.8 nM
- TGI (HS 578T breast): 245 nM
- GI50 (MALME-3M melanoma): 135 nM
- TGI (MALME-3M melanoma): 1340 nM
- GI50 (A549 NSCLC): 706 nM
- TGI (A549 NSCLC): 14300 nM
- GI50 (NCI/ADR-RES ovarian): 254 nM
- TGI (NCI/ADR-RES ovarian): 701 nM
- GI50 (EKVX NSCLC): 436 nM
- TGI (EKVX NSCLC): 11400 nM
- GI50 (MDA-MB-231 breast): 608 nM
- TGI (MDA-MB-231 breast): 6180 nM
- GI50 (HCC-2998 colon): 41.4 nM
- TGI (HCC-2998 colon): 180 nM
- GI50 (SF-295 CNS): 42.2 nM
- TGI (SF-295 CNS): 210 nM
- GI50 (SW-620 colon): 693 nM
- TGI (SW-620 colon): 2050 nM

From PubChem BioAssay (NCI)
